Measured values: patent US20080200403A1, “9A-Carbamoyl and Thiocarbamoyl Azalides with Anti-Inflammatory Activity” (GLAXOSMITHKLINE, priority 2005, published 2008)
Like-named read-outs stand apart in the source and are kept apart here.

Assays:
Format in all cases: cell-based
A549 = assay: MTT cytotoxicity assay on A549 cell line; conditions: human, 24 h
Description: (§1) To determine whether the anti-inflammatory activity of the test compounds was due to observed inhibition of cytokine production and inhibition of proliferation in vitro, and was not a consequence of cellular cytotoxicity, measurement of succinate dehydrogenase activity in living cells was performed. Cells were cultured for 24 h in RPMI medium as described above at 37° C. in the presence of the test compounds at concentrations of 50 μM and 12.5 μM. MTT [3-(4,5-dimethylthiazole-2-yl)-2,5-diphenyl tetrazolium bromide] (Promega, USA), a detection reagent, was then added and the cultures were incubated for 0.5-2 h. The amount of MTT-Formazan produced was determined using a spectrophotometer at 490 nm (Mosmann, J. Imnunol. Methods, 1983, 65: 55-63). Percentage of viable cells was calculated using the following formula:
(§2) % viable cells=([…]OD490 treated cells/OD490 nontreated cells)×100

Hep G2 = assay: MTT cytotoxicity assay on Hep G2 cell line; conditions: human, 24 h
Description: as §1, §2

IL-1α = assay: Inhibition of IL-1 production by stimulated human peripheral blood leukocytes in vitro; conditions: Homo sapiens, Leukocyte, PBL, read-out: Percentage of inhibition of IL-1α production; for inhibition at 10 µM: compound 10 μM; for inhibition at 50 µM: compound 50 μM
IL-8 = assay: Inhibition of IL-8 production by stimulated human peripheral blood leukocytes in vitro; conditions: Homo sapiens, Leukocyte, PBL, read-out: Percentage of inhibition of IL-8 production; for inhibition at 10 µM: compound 10 μM; for inhibition at 50 µM: compound 50 μM
Summary of the method: (§3)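 Dextran-isolated human PBL (3-5×10^6 per well) in RPMI with 10% FCS were preincubated 2 h at 37 °C with compounds at 50 μM or 10 μM final, then stimulated overnight with 2 μg/mL LPS, 1 μg/mL PMA or 120 μg/mL zymosan. Supernatant cytokines by sandwich ELISA; % inhibition versus stimulated untreated control.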

IL-6 = assay: Inhibition of IL-6 production by stimulated human peripheral blood leukocytes in vitro; conditions: Homo sapiens, Leukocyte, PBL, read-out: Percentage of inhibition of IL-6 production; for inhibition at 10 µM: compound 10 μM; for inhibition at 50 µM: compound 50 μM
Summary of the method: as §3

TNF-α = assay: Inhibition of TNF-α production by stimulated human peripheral blood leukocytes in vitro; conditions: Homo sapiens, Leukocyte, PBL, read-out: Percentage of inhibition of TNF-α production; for inhibition at 10 µM: compound 10 μM; for inhibition at 50 µM: compound 50 μM
Summary of the method: as §3

| Compound | Percentage of viable cells after treatment (A549; 12.5 μM) | Percentage of viable cells after treatment (A549; 50 μM) | Percentage of viable cells after treatment (Hep G2; 12.5 μM) | Percentage of viable cells after treatment (Hep G2; 50 μM) | inhibition at 10 µM (IL-1α; LPS stimulated) | inhibition at 50 µM (IL-1α; LPS stimulated) | inhibition at 10 µM (IL-1α; zymosan stimulated) | inhibition at 50 µM (IL-1α; zymosan stimulated) | inhibition at 10 µM (IL-8; LPS stimulated) | inhibition at 50 µM (IL-8; LPS stimulated) | inhibition at 10 µM (IL-8; zymosan stimulated) | inhibition at 50 µM (IL-8; zymosan stimulated) | inhibition at 10 µM (IL-6; LPS stimulated) | inhibition at 50 µM (IL-6; LPS stimulated) | inhibition at 10 µM (IL-6; zymosan stimulated) | inhibition at 50 µM (IL-6; zymosan stimulated) | inhibition at 10 µM (TNF-α; LPS stimulated) | inhibition at 50 µM (TNF-α; LPS stimulated) | inhibition at 10 µM (TNF-α; zymosan stimulated) | inhibition at 50 µM (TNF-α; zymosan stimulated) |
| --- | --- | --- | --- | --- | --- | --- | --- | --- | --- | --- | --- | --- | --- | --- | --- | --- | --- | --- | --- | --- |
| CC[C@H]1OC(=O)[C@H](C)[C@@H](O[C@H]2C[C@@](C)(OC)[C@@H](O)[C@H](C)O2)[C@H](C)[C@@H](O[C@@H]2O[C@H](C)C[C@H](N(C)C)[C@H]2O)[C@](C)(O)C[C@@H](C)CN(C(=O)NC(C)c2cccc3ccccc23)[C@H](C)[C@@H](O)[C@]1(C)O (stereo partly shown) [Compound 12] | 94% | 72% | 93% | 8% | 52% | 82% | 80% | 100% | 15% | 100% | 40% | 100% | 6% | 100% | 88% | 100% | 28% | 100% | 70% | 100% |
| CC[C@H]1OC(=O)[C@H](C)[C@@H](O[C@H]2C[C@@](C)(OC)[C@@H](O)[C@H](C)O2)[C@H](C)[C@@H](O[C@@H]2O[C@H](C)C[C@H](N(C)C)[C@H]2O)[C@](C)(O)C[C@@H](C)CN(C(=O)Nc2ccc(C(F)(F)F)cc2)[C@H](C)[C@@H](O)[C@]1(C)O [Compound 9] | 100% | 100% | 92% | 21% | 45% | 43% | 65% | 22% | 0% | 100% | 0% | 100% | 0% | 100% | 58% | 100% | 23% | 100% | 39% | 100% |
